The values below come from patent publication US11149031B2, “Substituted N-(3-fluoropropyl)-pyrrolidine compounds, processes for their preparation and therapeutic uses thereof” (SANOFI, priority 2016, dated 2021).

pIC50: −log10 of the molar value.

In assay [1] the target is His6-ERα298-554 WT (ERα ligand-binding domain) (Homo sapiens (Human), UniProt P03372). Briefly: Test A: biochemical antagonist activity, LanthaScreen TR-FRET ERα coactivator assay, WT. Particulars: protocol with 3 nM estradiol; read-out: Antagonism WT IC50. As for the experimental part:
(§1) Test A: Biochemical Antagonist Activity on Wild Type (WT) and Mutants
(§2) Estrogen Receptors Test A involves measuring the in vitro antagonist activity of the compounds of the invention on estrogen receptors.
(§3) The measurements of the antagonist activities were made using an estrogen receptor coactivator assay as described hereunder.
(§4) Antagonistic potency of compounds was evaluated using LanthaScreen® TR-FRET ERα Coactivator Assay (ThermoFisher) with modifications. […] The assay works in a homogeneous mix-and-read format. In a typical experiment, a 4 μL mixture of 0.5 nM His6-ERα298-554, 0.5 nM Tb-labeled His6 antibody, 250 nM PGC1a peptide, and 3 nM estradiol (or 10 nM estradiol) in 100 mM potassium phosphate, pH 7.4, 0.01% Tween-20, 0.02% NaN3, 5 mM DTT, was added to 40 nL test compound in DMSO and incubated overnight at room temperature. The TR-FRET 520:495 nm emission ratio was calculated and used to determine the IC50 value from a dose response curve fit to the 4-parameter logistic equation.

The target of assay [2] is His6-ERα298-554 D538G mutant (ERα ligand-binding domain) (Homo sapiens (Human), UniProt P03372, D538G). Briefly: Test A: biochemical antagonist activity, LanthaScreen TR-FRET ERα coactivator assay, D538G mutant. Particulars: protocol with 3 nM estradiol; read-out: Antagonism D538G IC50. As for the experimental part:
as §1, §2, §3, §4

In assay [3] the target is His6-ERα298-554 Y537S mutant (ERα ligand-binding domain) (Homo sapiens (Human), UniProt P03372, Y537S). Put plainly: Test A: biochemical antagonist activity, LanthaScreen TR-FRET ERα coactivator assay, Y537S mutant. Particulars: protocol with 3 nM estradiol; read-out: Antagonism Y537S IC50. As to the method: as §1, §2, §3, §4
Assay [4] deals with ERα in MCF7 cells (Homo sapiens (Human), UniProt P03372). Briefly: Test C: estrogen receptor degradation activity, ERα in cell western assay in MCF7 cells. Particulars: for DC50: 4 hours post compound addition, ERα in cell western, read-out: Degradation IC50; for % Degradation at 3 μM: 4 hours, relative to fulvestrant. In kind it is cell-based. As to the method:
Test C: Estrogen Receptor Degradation Activity
Test C involves measuring the in vitro degradation activity of the compounds of the invention.
The measurements of the degradation activities were made using abreast cancer cell ERα in cell western assay as described hereunder.
MCF7 cells (ATCC) were seeded in 384 wells microplate (collagen coated) at concentration of >9990 cells/30 μL per well in red phenol free MEM alpha medium (invitrogen) containing 5% charcoal dextran striped FBS. The following day, 9 points serial 1:5 dilution of each compound were added to the cells in 2.5 μL at final concentrations ranging from 3-0.000018 μM or 0.1 μM for fulvestrant (using as positive control). At 4 hours post compounds addition the cells were fixed by adding 25 μL of formalin (final concentration 5% formalin containing 0.1% triton) for 10 minutes at room temperature and then washed twice with PBS. Then, 50 μL of LI-COR blocking buffer containing 0.1% Triton was added to plate for 30 minutes at room temperature. LI-COR blocking buffer was removed and cells were incubated overnight at cold room with 50 μL anti-ER rabbit monoclonal antibody (Thermo scientific MA1-39540) diluted at 1:>999 in LI-COR blocking buffer containing 0.1% tween-20. Wells which were treated with blocking but no antibody were used as background control. Wells were washed twice with PBS (0.1% tween-20) and incubated at 37° C. for 60 minutes in LI-COR (0.1% tween-20) containing goat anti-rabbit antibody Alexa 488 (1:>999) and Syto-64 a DNA dye (2 μM final concentration). Cells were then washed 3 times in PBS and scanned in ACUMEN explorer (TTP-Labtech). Integrated intensities in the green fluorescence and red fluorescence were measured to determine the levels of ERα and DNA respectively.

His6-ERα298-554 WT (ERα ligand-binding domain), sequence (P03372 298-554): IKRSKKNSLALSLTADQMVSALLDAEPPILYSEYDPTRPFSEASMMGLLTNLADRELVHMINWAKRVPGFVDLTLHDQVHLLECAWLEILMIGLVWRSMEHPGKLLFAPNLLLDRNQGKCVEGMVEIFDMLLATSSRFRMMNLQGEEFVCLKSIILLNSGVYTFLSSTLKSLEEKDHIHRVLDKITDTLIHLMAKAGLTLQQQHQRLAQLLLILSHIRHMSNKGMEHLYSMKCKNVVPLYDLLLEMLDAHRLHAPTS
His6-ERα298-554 D538G mutant (ERα ligand-binding domain), sequence (P03372 298-554 D538G): as the sequence (P03372 298-554) above, with D241G counted along it
ERα in MCF7 cells, sequence (P03372 whole entry): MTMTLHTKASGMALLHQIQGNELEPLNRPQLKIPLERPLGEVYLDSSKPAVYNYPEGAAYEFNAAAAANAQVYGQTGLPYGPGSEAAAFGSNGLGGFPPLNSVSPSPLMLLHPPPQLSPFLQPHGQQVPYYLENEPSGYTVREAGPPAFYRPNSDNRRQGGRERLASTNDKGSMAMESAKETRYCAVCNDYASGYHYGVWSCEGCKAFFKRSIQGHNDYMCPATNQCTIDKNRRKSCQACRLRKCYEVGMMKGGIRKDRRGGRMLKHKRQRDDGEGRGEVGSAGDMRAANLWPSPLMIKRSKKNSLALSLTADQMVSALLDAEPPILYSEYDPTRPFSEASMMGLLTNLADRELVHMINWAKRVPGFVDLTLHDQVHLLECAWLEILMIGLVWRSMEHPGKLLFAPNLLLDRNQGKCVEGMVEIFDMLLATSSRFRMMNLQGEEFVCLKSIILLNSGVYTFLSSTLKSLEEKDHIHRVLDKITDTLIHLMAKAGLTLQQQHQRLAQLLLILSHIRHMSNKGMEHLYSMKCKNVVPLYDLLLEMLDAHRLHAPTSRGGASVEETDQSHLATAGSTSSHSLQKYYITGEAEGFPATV
His6-ERα298-554 Y537S mutant (ERα ligand-binding domain), sequence (P03372 298-554 Y537S): as the sequence (P03372 298-554) above, with Y240S counted along it

`Cc1c(F)cccc1C1=C(c2ccc(O[C@H]3CCN(CCCF)C3)cc2)c2ccc(O)cc2OCC1` [Example 126, 4-(3-fluoro-2-methyl-phenyl)-5-[4-[(3S)-1-(3-fluoropropyl)pyrrolidin-3-yl]oxyphenyl]-2,3-dihydro-1-benzoxepin-8-ol]: the pIC50 in assay [1] was 8.30; in assay [2], 7.03; in assay [3] it was 7.26. The DC50 in assay [4] turned out to be 0.3 nM. Further, the “% Degradation at 3 μM” value in assay [4] is reported as 91%.
The corresponding values for `CCOc1ccc(C2=C(c3ccc(O[C@H]4CCN(CCCF)C4)cc3)c3ccc(O)cc3OCC2)cn1` [Example 127, 4-(6-ethoxy-3-pyridyl)-5-[4-[(3S)-1-(3-fluoropropyl)pyrrolidin-3-yl]oxyphenyl]-2,3-dihydro-1-benzoxepin-8-ol] are 8.52, 7.31, 7.62, 0.8 nM and 90%.
The corresponding values for `Oc1ccc2c(c1Cl)OCCC(c1cccc3c1CCN3)=C2c1ccc(O[C@H]2CCN(CCCF)C2)cc1` [Example 128, 9-chloro-5-[4-[(3S)-1-(3-fluoropropyl)pyrrolidin-3-yl]oxyphenyl]-4-indolin-4-yl-2,3-dihydro-1-benzoxepin-8-ol] are 7.02, 5.92, 6.03, 14 nM and 72%.
Consider `Cc1c(O)ccc2c1OCCC(c1cccc3[nH]ccc13)=C2c1ccc(O[C@H]2CCN(CCCF)C2)cc1` [Example 130, 5-[4-[(3S)-1-(3-fluoropropyl)pyrrolidin-3-yl]oxyphenyl]-4-(1H-indol-4-yl)-9-methyl-2,3-dihydro-1-benzoxepin-8-ol], for which the pIC50 in assay [1] is 7.15; in assay [2], 5.92; in assay [3] it was 6.11. Further, in assay [4], the DC50 was found to be 18 nM. The “% Degradation at 3 μM” value in assay [4] was 73%.
The corresponding values for `Oc1ccc2c(c1F)OCCC(c1ccc3cc[nH]c3c1)=C2c1ccc(O[C@H]2CCN(CCCF)C2)cc1` [Example 131, 9-fluoro-5-[4-[(3S)-1-(3-fluoropropyl)pyrrolidin-3-yl]oxyphenyl]-4-(1H-indol-6-yl)-2,3-dihydro-1-benzoxepin-8-ol] are 7.72, 6.47, 6.56, 3 nM and 83%.
For `Oc1ccc2c(c1F)OCCC(c1ccc3c(c1)NCC3)=C2c1ccc(O[C@H]2CCN(CCCF)C2)cc1` [Example 132, 9-fluoro-5-[4-[(3S)-1-(3-fluoropropyl)pyrrolidin-3-yl]oxyphenyl]-4-indolin-6-yl-2,3-dihydro-1-benzoxepin-8-ol], the pIC50 was 7.55 in assay [1], 6.33 in assay [2] and 6.48 in assay [3]. In addition, in assay [4], the DC50 worked out at 2 nM. The “% Degradation at 3 μM” value in assay [4] is recorded as 88%.
For `Oc1ccc2c(c1F)OCCC(c1cccc3[nH]ccc13)=C2c1ccc(O[C@H]2CCN(CCCF)C2)cc1` [Example 133, 9-fluoro-5-[4-[(3S)-1-(3-fluoropropyl)pyrrolidin-3-yl]oxyphenyl]-4-(1H-indol-4-yl)-2,3-dihydro-1-benzoxepin-8-ol], the pIC50 in assay [1] is 8.40; in assay [2], 7.19; in assay [3], 7.41. In addition, the DC50 in assay [4] was 2 nM. In addition, the “% Degradation at 3 μM” value in assay [4] was determined as 83%.
As for `Oc1ccc2c(c1F)OCCC(c1cccc3c1CCN3)=C2c1ccc(O[C@H]2CCN(CCCF)C2)cc1` [Example 134, 9-fluoro-5-[4-[(3S)-1-(3-fluoropropyl)pyrrolidin-3-yl]oxyphenyl]-4-indolin-4-yl-2,3-dihydro-1-benzoxepin-8-ol], the pIC50 in assay [1] is 7.72; in assay [2], 6.48; in assay [3], 6.65. The DC50 in assay [4] came to 3 nM. Further, the “% Degradation at 3 μM” value in assay [4] is recorded as 85%.
Regarding `Cc1cc2c(cc1O)OCCC(c1cccc(Cl)c1C)=C2c1ccc(O[C@H]2CCN(CCCF)C2)cc1` [Example 135, 4-(3-chloro-2-methyl-phenyl)-5-[4-[(3S)-1-(3-fluoropropyl)pyrrolidin-3-yl]oxyphenyl]-7-methyl-2,3-dihydro-1-benzoxepin-8-ol], the negative logarithm of the IC50 (pIC50) in assay [1] is 7.68; in assay [2] it was 6.23; in assay [3], 6.45. For the same compound, the DC50 in assay [4] turned out to be 3 nM. Further, the “% Degradation at 3 μM” value in assay [4] worked out at 87%.
The corresponding values for `Cc1cc2c(cc1O)OCCC(c1cccc(O)c1)=C2c1ccc(O[C@H]2CCN(CCCF)C2)cc1` [Example 136, 5-[4-[(3S)-1-(3-fluoropropyl)pyrrolidin-3-yl]oxyphenyl]-4-(3-hydroxyphenyl)-7-methyl-2,3-dihydro-1-benzoxepin-8-ol] are 8.40, 7.23, 7.36, 1 nM and 79%.
On to `Cc1cc2c(cc1O)OCCC(c1ccc3c(c1)CCN3)=C2c1ccc(O[C@H]2CCN(CCCF)C2)cc1` [Example 137, 5-[4-[(3S)-1-(3-fluoropropyl)pyrrolidin-3-yl]oxyphenyl]-4-indolin-5-yl-7-methyl-2,3-dihydro-1-benzoxepin-8-ol], for which the negative-log IC50 (pIC50) in assay [1] is 6.60; in assay [2], 5.77; in assay [3], 5.91. Besides, in assay [4], the DC50 is 5 nM. Further, the “% Degradation at 3 μM” value in assay [4] came out at 75%.
`Cc1cc2c(cc1O)OCCC(c1ccc3[nH]ccc3c1)=C2c1ccc(O[C@H]2CCN(CCCF)C2)cc1` [Example 139, 5-[4-[(3S)-1-(3-fluoropropyl)pyrrolidin-3-yl]oxyphenyl]-4-(1H-indol-5-yl)-7-methyl-2,3-dihydro-1-benzoxepin-8-ol]: the negative-log IC50 (pIC50) in assay [1] is 7.17; in assay [2] it was 5.93; in assay [3], 6.09. In assay [4], the DC50 is 9 nM. Moreover, the “% Degradation at 3 μM” value in assay [4] was found to be 73%.
The corresponding values for `Cc1ccc(C2=C(c3ccc(O[C@H]4CCN(CCCF)C4)cc3)c3cc(C)c(O)cc3OCC2)c(F)c1` [Example 140, 4-(2-fluoro-4-methyl-phenyl)-5-[4-[(3S)-1-(3-fluoropropyl)pyrrolidin-3-yl]oxyphenyl]-7-methyl-2,3-dihydro-1-benzoxepin-8-ol] are 7.44, 6.19, 6.27, 3 nM and 85%.
In the case of `Oc1cccc(C2=C(c3ccc(O[C@H]4CCN(CCCF)C4)cc3)c3ccc(O)cc3SCC2)c1` [Example 158, 5-[4-[(3S)-1-(3-fluoropropyl)pyrrolidin-3-yl]oxyphenyl]-4-(3-hydroxyphenyl)-2,3-dihydro-1-benzothiepin-8-ol], the pIC50 is 9.00 in assay [1], 8.40 in assay [2] and 8.52 in assay [3]. Moreover, in assay [4], the DC50 turned out to be 0.2 nM. Further, in assay [4], the “% Degradation at 3 μM” value came out at 88%.
The corresponding values for `Oc1ccc2c(c1)SCCC(c1ccc(F)cc1Cl)=C2c1ccc(O[C@H]2CCN(CCCF)C2)cc1` [Example 159, 4-(2-chloro-4-fluoro-phenyl)-5-[4-[(3S)-1-(3-fluoropropyl)pyrrolidin-3-yl]oxyphenyl]-2,3-dihydro-1-benzothiepin-8-ol] are 8.52, 7.77, 8.00, 0.5 nM and 89%.
The corresponding values for `Oc1ccc2c(c1)SCCC(c1ccc3[nH]ccc3c1)=C2c1ccc(O[C@H]2CCN(CCCF)C2)cc1` [Example 160, 5-[4-[(3S)-1-(3-fluoropropyl)pyrrolidin-3-yl]oxyphenyl]-4-(1H-indol-5-yl)-2,3-dihydro-1-benzothiepin-8-ol] are 8.52, 7.89, 8.10, 0.2 nM and 75%.
